Experimental data taken from ChEMBL document CHEMBL5370643, “Discovery of MK-1468: A Potent, Kinome-Selective, Brain-Penetrant Amidoisoquinoline LRRK2 Inhibitor for the Potential Treatment of Parkinson's Disease” (J Med Chem, 2023).
Blank lines part the entries; values can stand above or below the molecule they belong to.

Experiments:
[1] = MRT in Wistar-Han rat at 0.1 mg/kg, iv administered as cassette dose by LC-MS/MS analysis; format: ADME, organism-based; conditions: in vivo
[2] = Unbound brain-to-plasma concentration ratio in iv dosed Wistar-Han rat administered as cassette dose by LC-MS/MS analysis; format: ADME, organism-based; conditions: read-out: K(p,uu,brain)
[3] = Intrinsic clearance in Wistar-Han rat at 0.1 mg/kg, iv administered as cassette dose by LC-MS/MS analysis; format: ADME, organism-based; conditions: in vivo
[4] = Total clearance in Wistar-Han rat at 0.1 mg/kg, iv administered as cassette dose by LC-MS/MS analysis; format: ADME, organism-based; conditions: in vivo
[5] = molecular target: Leucine-rich repeat serine/threonine-protein kinase 2 (Homo sapiens) (UniProt Q5S007); assay: Inhibition of LRRK2 in human PBMC using LRRKtide peptide as substrate assessed as Ser935 dephosphorylation preincubated with compound for 15 mins followed by substrate addition and measured after 90 mins in presence of ATP by TR-FRET assay; format: cell-based; conditions: time 105.0 min
[6] = molecular target: Leucine-rich repeat serine/threonine-protein kinase 2 (Homo sapiens, UniProt Q5S007, G2019S); assay: Inhibition of recombinant N-terminal GST-fused LRRK2 […] mutant (970 to 2527 residues) (unknown origin) using LRRKtide peptide as substrate assessed as inhibition of substrate phosphorylation preincubated with compound for 15 mins followed by substrate addition and measured after 90 mins in presence of ATP by TR-FRET assay
[7] = Mutagenicity in Salmonella typhimurium TA1535 at 30 to 5000 ug/plate incubated for 48 hrs in presence of Wistar-Han rat S9 fraction by Ames test; format: toxicity, subcellular; conditions: salmonella enterica subsp. enterica serovar typhimurium, s9, 48 h
[8] = Mutagenicity in Salmonella typhimurium TA100 at 30 to 5000 ug/plate incubated for 48 hrs in presence of Wistar-Han rat S9 fraction by Ames test; format: toxicity, subcellular; conditions: salmonella enterica subsp. enterica serovar typhimurium, s9, 48 h
[9] = Mutagenicity in Salmonella typhimurium TA98 at 30 to 5000 ug/plate incubated for 48 hrs in presence of Wistar-Han rat S9 fraction by Ames test; format: toxicity, subcellular; conditions: salmonella enterica subsp. enterica serovar typhimurium, s9, 48 h
[10] = Mutagenicity in Salmonella typhimurium TA98 at 30 to 5000 ug/plate incubated for 48 hrs in absence of Wistar-Han rat S9 fraction by Ames test; format: toxicity; conditions: salmonella enterica subsp. enterica serovar typhimurium, s9, 48 h
[11] = Mutagenicity in Salmonella typhimurium TA1535 at 30 to 5000 ug/plate incubated for 48 hrs in absence of Wistar-Han rat S9 fraction by Ames test; format: toxicity; conditions: salmonella enterica subsp. enterica serovar typhimurium, s9, 48 h
[12] = Mutagenicity in Salmonella typhimurium TA100 at 30 to 5000 ug/plate incubated for 48 hrs in absence of Wistar-Han rat S9 fraction by Ames test; format: toxicity; conditions: salmonella enterica subsp. enterica serovar typhimurium, s9, 48 h
rat Mdrl1 P-gp = assay: Efflux ratio of apparent permeability across basolateral to apical over apical to basolateral side in MDCK cells transfected with rat Mdrl1 P-gp incubated for 3 hrs by LC-MS/MS analysis; conditions: dog, MDCK-MDR1
rat Mdr1a P-gp = assay: Apparent permeability across apical to basolateral side in LLC-PK1 cells transfected with rat Mdr1a P-gp incubated for 3 hrs by LC-MS/MS analysis; conditions: pig
[13] = Intrinsic clearance in Beagle dog at 0.05 mg/kg, iv administered as cassette dose by LC-MS/MS analysis; format: ADME, organism-based, Canis lupus familiaris; conditions: in vivo
[14] = Total clearance in Beagle dog at 0.05 mg/kg, iv administered as cassette dose by LC-MS/MS analysis; format: ADME, organism-based, Canis lupus familiaris; conditions: in vivo
[15] = Total clearance in Wistar-Han rat at 2 mg/kg, iv measured after 24 hrs by LC-MS/MS analysis; format: ADME, organism-based; conditions: in vivo
[16] = MRT in Beagle dog at 0.05 mg/kg, iv administered as cassette dose by LC-MS/MS analysis; format: ADME, organism-based, Canis lupus familiaris; conditions: in vivo
[17] = MRT in Wistar-Han rat at 2 mg/kg, iv measured after 24 hrs by LC-MS/MS analysis; format: ADME, organism-based; conditions: in vivo
[18] = Intrinsic clearance in Wistar-Han rat at 2 mg/kg, iv measured after 24 hrs by LC-MS/MS analysis; format: ADME, organism-based; conditions: in vivo
[19] = Oral bioavailability in Wistar-Han rat at 10 mg/kg measured after 24 hrs by LC-MS/MS analysis; format: ADME, organism-based; conditions: in vivo
[20] = Drug metabolism in dog assessed as oxidative metabolism of piperazine-THF alcohol lysine region fragment by MetID analysis; format: ADME, Canis lupus familiaris
[21] = Drug metabolism in rat assessed as amide hydrolysis mediated metabolite formation by MetID analysis; format: ADME
[22] = Oral bioavailability in Wistar-Han rat at 5 mg/kg measured after 24 hrs by LC-MS/MS analysis; format: ADME, organism-based; conditions: in vivo
[23] = Drug metabolism in dog assessed as amide hydrolysis mediated metabolite formation by MetID analysis; format: ADME, Canis lupus familiaris
[24] = Drug metabolism in rat assessed as oxidative metabolism of piperazine-THF alcohol lysine region fragment by MetID analysis; format: ADME
[25] = molecular target: T1, Serine/threonine-protein kinase BRSK1 (Homo sapiens, UniProt Q8TDC3); assay: Inhibition of BRSK1 (unknown origin)
T1 sequence (Q8TDC3 whole entry): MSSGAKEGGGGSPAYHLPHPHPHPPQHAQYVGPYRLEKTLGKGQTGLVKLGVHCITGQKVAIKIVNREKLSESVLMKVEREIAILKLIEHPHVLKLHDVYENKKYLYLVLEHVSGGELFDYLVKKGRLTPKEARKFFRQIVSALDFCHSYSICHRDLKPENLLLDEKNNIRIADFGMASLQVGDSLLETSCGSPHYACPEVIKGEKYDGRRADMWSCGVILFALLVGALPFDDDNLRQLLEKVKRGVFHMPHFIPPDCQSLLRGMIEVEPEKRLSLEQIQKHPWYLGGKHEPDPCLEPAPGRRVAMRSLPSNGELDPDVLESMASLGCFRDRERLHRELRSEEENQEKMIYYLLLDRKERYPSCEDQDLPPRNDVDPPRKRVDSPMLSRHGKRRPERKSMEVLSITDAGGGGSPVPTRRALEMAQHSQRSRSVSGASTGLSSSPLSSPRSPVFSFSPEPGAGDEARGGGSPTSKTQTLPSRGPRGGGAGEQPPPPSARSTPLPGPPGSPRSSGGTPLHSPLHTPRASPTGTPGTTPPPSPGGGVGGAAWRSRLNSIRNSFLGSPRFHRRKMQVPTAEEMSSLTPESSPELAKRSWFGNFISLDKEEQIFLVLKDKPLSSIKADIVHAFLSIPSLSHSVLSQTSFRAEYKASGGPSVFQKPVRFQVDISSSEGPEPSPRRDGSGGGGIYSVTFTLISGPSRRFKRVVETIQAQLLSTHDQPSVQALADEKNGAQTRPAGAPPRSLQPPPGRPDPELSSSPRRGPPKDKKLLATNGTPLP

[26] = molecular target: Voltage-gated inwardly rectifying potassium channel KCNH2 (Homo sapiens, UniProt Q12809); assay: Inhibition of hERG expressed in CHO cells by QPatch voltage clamp assay
[27] = Lipophilicity, logD of compound at pH 7 by HT-HPLC/DAD analysis; format: physicochemical; conditions: buffer
mouse BCRP = assay: Efflux ratio of apparent permeability across basolateral to apical over apical to basolateral side in MDCK-II cells transfected with mouse BCRP incubated for 3 hrs by LC-MS/MS analysis; conditions: dog

Leucine-rich repeat serine/threonine-protein kinase 2, sequence (Q5S007 whole entry G2019S, the tested form may be a part): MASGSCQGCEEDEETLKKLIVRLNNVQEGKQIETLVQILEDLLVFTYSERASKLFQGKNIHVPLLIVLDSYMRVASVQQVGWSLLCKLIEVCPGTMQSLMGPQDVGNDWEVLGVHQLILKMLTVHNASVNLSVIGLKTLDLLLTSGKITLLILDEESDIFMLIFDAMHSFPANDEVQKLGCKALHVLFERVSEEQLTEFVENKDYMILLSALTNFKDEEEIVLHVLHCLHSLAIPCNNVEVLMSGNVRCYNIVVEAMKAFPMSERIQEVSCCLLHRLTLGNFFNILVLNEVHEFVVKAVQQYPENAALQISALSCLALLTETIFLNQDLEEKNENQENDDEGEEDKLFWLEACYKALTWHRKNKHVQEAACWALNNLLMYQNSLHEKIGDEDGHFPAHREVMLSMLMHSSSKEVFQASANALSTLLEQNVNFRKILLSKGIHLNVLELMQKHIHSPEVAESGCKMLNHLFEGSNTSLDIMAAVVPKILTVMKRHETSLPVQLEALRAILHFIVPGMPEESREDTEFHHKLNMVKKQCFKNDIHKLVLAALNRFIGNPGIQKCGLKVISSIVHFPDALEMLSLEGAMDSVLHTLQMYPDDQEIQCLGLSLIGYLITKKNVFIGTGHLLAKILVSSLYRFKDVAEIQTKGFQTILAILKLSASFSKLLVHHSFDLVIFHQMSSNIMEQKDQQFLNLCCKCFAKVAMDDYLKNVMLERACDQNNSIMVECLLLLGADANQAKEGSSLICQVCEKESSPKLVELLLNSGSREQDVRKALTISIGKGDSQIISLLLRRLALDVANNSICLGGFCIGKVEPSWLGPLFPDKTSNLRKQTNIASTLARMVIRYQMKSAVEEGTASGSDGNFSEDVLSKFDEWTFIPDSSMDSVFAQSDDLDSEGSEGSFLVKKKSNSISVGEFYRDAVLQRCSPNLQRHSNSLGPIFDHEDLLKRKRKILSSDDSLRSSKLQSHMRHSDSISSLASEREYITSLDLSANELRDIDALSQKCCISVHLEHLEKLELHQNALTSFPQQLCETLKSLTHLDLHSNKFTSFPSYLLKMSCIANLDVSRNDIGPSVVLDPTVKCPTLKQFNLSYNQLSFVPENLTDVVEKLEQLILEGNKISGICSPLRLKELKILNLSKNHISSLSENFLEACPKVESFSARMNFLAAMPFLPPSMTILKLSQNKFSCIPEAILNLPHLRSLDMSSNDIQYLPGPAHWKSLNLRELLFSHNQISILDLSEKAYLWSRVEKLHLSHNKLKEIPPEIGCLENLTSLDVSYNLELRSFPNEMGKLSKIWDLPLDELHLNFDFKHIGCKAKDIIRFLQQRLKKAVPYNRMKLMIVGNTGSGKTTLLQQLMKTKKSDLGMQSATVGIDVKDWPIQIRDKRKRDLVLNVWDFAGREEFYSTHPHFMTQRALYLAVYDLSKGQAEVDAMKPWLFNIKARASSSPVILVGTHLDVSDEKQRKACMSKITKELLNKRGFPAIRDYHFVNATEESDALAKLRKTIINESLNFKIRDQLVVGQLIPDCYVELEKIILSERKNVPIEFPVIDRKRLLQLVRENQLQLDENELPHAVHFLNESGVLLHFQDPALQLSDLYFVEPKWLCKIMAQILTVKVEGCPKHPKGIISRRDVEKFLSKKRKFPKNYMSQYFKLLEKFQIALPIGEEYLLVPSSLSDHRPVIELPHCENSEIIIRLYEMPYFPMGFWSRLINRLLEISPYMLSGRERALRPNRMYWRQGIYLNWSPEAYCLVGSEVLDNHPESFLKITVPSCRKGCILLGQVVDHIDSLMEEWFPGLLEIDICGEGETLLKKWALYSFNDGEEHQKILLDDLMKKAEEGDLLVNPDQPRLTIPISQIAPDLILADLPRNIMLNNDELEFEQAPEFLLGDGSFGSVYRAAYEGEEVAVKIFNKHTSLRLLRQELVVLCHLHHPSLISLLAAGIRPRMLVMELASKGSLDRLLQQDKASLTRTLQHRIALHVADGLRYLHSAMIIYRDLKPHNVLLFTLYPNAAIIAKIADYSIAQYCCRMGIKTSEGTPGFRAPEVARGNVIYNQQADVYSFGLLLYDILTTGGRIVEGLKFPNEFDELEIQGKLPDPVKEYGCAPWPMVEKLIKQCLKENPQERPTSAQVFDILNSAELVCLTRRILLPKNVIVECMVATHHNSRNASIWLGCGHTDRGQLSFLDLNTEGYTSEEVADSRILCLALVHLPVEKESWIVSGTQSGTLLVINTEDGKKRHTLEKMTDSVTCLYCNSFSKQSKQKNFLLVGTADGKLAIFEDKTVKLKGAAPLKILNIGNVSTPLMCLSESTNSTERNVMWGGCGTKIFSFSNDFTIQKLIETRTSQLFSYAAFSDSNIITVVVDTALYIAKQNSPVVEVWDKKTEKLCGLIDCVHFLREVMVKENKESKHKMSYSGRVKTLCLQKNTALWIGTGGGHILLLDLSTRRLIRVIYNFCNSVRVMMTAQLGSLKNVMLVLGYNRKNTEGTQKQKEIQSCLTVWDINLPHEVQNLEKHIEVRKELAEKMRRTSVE
Leucine-rich repeat serine/threonine-protein kinase 2 (Homo sapiens), sequence (Q5S007 whole entry, the tested form may be a part): as the sequence (Q5S007 whole entry G2019S, the tested form may be a part) above, with S2019G counted along it
Voltage-gated inwardly rectifying potassium channel KCNH2, sequence (Q12809 whole entry): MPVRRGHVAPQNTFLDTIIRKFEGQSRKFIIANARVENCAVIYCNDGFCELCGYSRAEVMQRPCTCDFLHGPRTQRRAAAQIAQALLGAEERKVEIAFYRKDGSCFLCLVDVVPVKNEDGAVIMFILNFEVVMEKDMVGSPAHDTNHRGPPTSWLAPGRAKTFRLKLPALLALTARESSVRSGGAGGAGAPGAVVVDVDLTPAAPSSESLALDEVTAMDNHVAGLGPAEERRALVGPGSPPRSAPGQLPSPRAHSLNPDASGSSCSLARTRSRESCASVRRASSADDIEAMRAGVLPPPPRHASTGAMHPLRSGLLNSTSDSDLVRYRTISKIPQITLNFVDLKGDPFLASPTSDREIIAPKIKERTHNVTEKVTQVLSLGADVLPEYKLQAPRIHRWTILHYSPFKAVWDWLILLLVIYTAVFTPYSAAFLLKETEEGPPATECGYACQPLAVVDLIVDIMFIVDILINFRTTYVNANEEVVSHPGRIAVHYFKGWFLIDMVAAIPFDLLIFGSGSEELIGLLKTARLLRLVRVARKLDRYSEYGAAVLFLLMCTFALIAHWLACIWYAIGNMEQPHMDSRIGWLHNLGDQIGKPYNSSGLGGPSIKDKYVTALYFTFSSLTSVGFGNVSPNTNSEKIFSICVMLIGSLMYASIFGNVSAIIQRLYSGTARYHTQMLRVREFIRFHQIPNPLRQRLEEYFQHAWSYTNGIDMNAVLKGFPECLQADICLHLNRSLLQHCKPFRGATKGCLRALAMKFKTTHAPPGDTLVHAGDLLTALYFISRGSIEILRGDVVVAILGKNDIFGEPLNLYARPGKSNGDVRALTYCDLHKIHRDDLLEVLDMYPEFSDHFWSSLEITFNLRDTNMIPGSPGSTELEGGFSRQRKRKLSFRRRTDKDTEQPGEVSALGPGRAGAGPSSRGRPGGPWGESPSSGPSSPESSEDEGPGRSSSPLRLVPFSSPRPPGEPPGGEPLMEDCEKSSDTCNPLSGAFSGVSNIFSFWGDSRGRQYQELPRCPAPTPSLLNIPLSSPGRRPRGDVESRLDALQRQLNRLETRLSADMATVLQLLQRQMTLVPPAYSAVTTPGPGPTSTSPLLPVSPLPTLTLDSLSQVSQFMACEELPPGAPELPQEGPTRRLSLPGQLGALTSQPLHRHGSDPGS

Compound: COC(C)(C)[C@@H]1C[C@H]1C(=O)Nc1cc2cc(C3CCN([C@]4(C)COC[C@@H]4O)CC3)c(Cl)cc2cn1
MRT [1]: 2.1 h | Kp uu [2]: 0.3 | CL [3]: 840 mL/min/kg | clearance [4]: 41 mL/min/kg

Compound: C[C@@]1(N2CCN(c3cc4cc(N)ncc4cc3Cl)CC2)COC[C@@H]1O
Activity [7]: Non-Toxic | Activity [8]: Non-Toxic | Activity [9]: Non-Toxic | Activity [10]: Non-Toxic | Activity [11]: Non-Toxic | Activity [12]: Non-Toxic

Compound: CC(C)(O)[C@H]1C[C@H]1C(=O)Nc1cc2cc(C3CCN([C@]4(C)COC[C@@H]4O)CC3)c(Cl)cc2cn1
MRT [1]: 3.1 h | CL [3]: 276 mL/min/kg | clearance [4]: 22 mL/min/kg | efflux ratio at 3 h (rat Mdrl1 P-gp): 9 | Papp A→B at 3 h (rat Mdr1a P-gp): 33 ×10⁻⁶ cm/s | IC50 [6]: < 0.08 nM

Compound: C[C@@]1(N2CCC(c3cc4cc(NC(=O)[C@H]5C[C@@H]5c5ccccn5)ncc4cc3Cl)CC2)COC[C@@H]1O
clearance [15]: 13 mL/min/kg | Drug metabolism [20]: Metabolite_Detected | Drug metabolism [21]: Metabolite_Notdetected | bioavailability [22]: 46% | Drug metabolism [23]: Metabolite_Detected | Drug metabolism [24]: Metabolite_Detected | MRT [17]: 5.6 h | CL [18]: 341 mL/min/kg | fIC50 [5]: 0.2 nM

Compound: C[C@@]1(N2CCC(c3cc4cc(N)ncc4cc3Cl)CC2)COC[C@@H]1O
Activity [7]: Non-Toxic | Activity [8]: Non-Toxic | Activity [9]: Non-Toxic | Activity [10]: Non-Toxic | Activity [11]: Non-Toxic | Activity [12]: Non-Toxic

Further lines, with some results ahead:

MRT [1]: 2.6 h | Kp uu [2]: 0.3 | CL [3]: 731 mL/min/kg | clearance [4]: 21 mL/min/kg | fIC50 [5]: 1.2 nM
Compound: Cn1ccc([C@H]2C[C@@H]2C(=O)Nc2cc3cc(C4CCN([C@]5(C)COC[C@@H]5O)CC4)c(Cl)cc3cn2)n1

IC50 [6]: 0.8 nM | fIC50 [5]: 112 nM
Compound: Cn1cc(C(=O)Nc2cc3cc(C4CCN([C@]5(C)COC[C@@H]5O)CC4)c(Cl)cc3cn2)cn1

CL [13]: 422 mL/min/kg | clearance [14]: 18 mL/min/kg | clearance [15]: 35 mL/min/kg | MRT [16]: 12 h | MRT [17]: 2.7 h | CL [18]: 875 mL/min/kg | bioavailability [19]: 67%
Compound: C[C@@]1(N2CCC(c3cc4cc(NC(=O)[C@H]5CC56CCOCC6)ncc4cc3Cl)CC2)COC[C@@H]1O

MRT [1]: 3.2 h | CL [3]: 684 mL/min/kg | clearance [4]: 12 mL/min/kg | IC50 [25]: 43 nM | IC50 [6]: < 0.08 nM | fIC50 [5]: 4.5 nM
Compound: C[C@@]1(N2CCC(c3cc4cc(NC(=O)C5CC5)ncc4cc3Cl)CC2)COC[C@@H]1O

MRT [1]: 4.4 h | CL [3]: 302 mL/min/kg | clearance [4]: 17 mL/min/kg | efflux ratio at 3 h (rat Mdrl1 P-gp): 12 | Papp A→B at 3 h (rat Mdr1a P-gp): 29 ×10⁻⁶ cm/s | IC50 [6]: 0.5 nM | fIC50 [5]: 0.28 nM
Compound: Cn1cc([C@H]2C[C@@H]2C(=O)Nc2cc3cc(C4CCN([C@]5(C)COC[C@@H]5O)CC4)c(Cl)cc3cn2)cn1
IC50 [26]: 9.5 µM

CL [13]: 76 mL/min/kg | MRT [1]: 3.2 h | clearance [14]: 10 mL/min/kg | logD [27]: 3.6 | CL [3]: 241 mL/min/kg | clearance [4]: 31 mL/min/kg | MRT [16]: 9.8 h | IC50 [6]: < 0.08 nM | fIC50 [5]: 12 nM
Compound: Cc1cc2cnc(NC(=O)C3CC34CC4)cc2cc1C1CCN([C@]2(C)COC[C@@H]2O)CC1 (some centres not stated)
IC50 [26]: 4.8 µM

MRT [1]: 3.3 h | efflux ratio at 3 h (mouse BCRP): 1.1 | CL [3]: 429 mL/min/kg | clearance [4]: 10 mL/min/kg | efflux ratio at 3 h (rat Mdrl1 P-gp): 0.9 | Papp A→B at 3 h (rat Mdr1a P-gp): 34 ×10⁻⁶ cm/s | IC50 [6]: 3 nM | fIC50 [5]: 168 nM
Compound: CC1(N2CCC(c3cc4cc(NC(=O)C5CC5)ncc4cc3Cl)CC2)COC1
